Columns and labels:
[1] = system: endogenous, natural muscarinic acetylcholine receptors; assay: Ca2+ imaging, carbachol stimulation of untransfected HEK-293 cells; type: cell-based, human; settings: 1 mM carbachol; absence of BAY44-4400
[2] = target: T1, mouse β2-adrenergic receptor (Mus musculus, UniProt P18762); assay: Ca2+ imaging of HEK-293 cells transfected with β2-R-GFP (control); type: cell-based; settings: immediately after addition
T1 construct: was fused with a C-terminal EGFP tag by amplifying the full-length cDNA with the P117 mouse 2AR XhoI 5′ primer; expressed in transfected cells; host or cells: HEK-293, transient (pEGFP-N3)
T1 sequence (P18762 whole entry, the tested form may be a part): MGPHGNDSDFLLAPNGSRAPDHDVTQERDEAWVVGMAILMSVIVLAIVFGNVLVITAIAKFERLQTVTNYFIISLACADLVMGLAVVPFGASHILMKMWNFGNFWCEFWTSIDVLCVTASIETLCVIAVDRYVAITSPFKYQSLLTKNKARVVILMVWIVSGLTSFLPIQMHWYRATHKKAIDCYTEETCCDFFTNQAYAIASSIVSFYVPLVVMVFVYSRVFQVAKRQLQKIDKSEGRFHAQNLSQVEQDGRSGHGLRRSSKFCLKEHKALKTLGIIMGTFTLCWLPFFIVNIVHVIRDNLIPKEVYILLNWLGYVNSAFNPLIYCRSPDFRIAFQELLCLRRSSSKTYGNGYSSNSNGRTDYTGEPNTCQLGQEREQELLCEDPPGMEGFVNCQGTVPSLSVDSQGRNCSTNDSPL
Procedure: (§1) The intracellular free Ca^2+ concentration [Ca^2+]i was measured in COS-7 and HEK293 cells transiently transfected with the HC110-R-EGFP or β2-AR-EGFP construct using the calcium imaging method (see also FIG. 11). In each case 2×10^5 COS-7 and HEK293 cells were applied to a 42 mm cover glass coated with 1% gelatine in 55 mm tissue culture dishes with 5 ml of DMEM medium (with 10% FCS and pen/strep). The transfection took place with the aid of the non-liposomal transfection reagent FuGENE 6 (Roche Molecular Biochemicals, Mannheim). […] Constructs of the HC110-R full-length clone with a GFP tag fused in the correct reading frame, and the complete cDNA of the β2-adrenergic receptor which had likewise been provided with a GFP tag at the 3′ end, were transfected.
(§2) After the incubation, the cells loaded with Fura-2/AM were examined under an inverted microscope (Zeiss, Axiovert, Germany) and, in parallel with this, in a digital imaging fluorescence microscope (PTI) and differentiated into transfected and untransfected cells at a wavelength of 440 and 490 nm respectively. On average, 5-7 transfected and non transfected cells were selected by fixing an ROI (region of interest). The extinction was measured at 340 nm (calcium-bound Fura-2/AM) and 380 nm (free Fura-2/AM), and the emission was measured at 510 nm. Evaluation took place using the Image Master 1.x software by forming the quotient of 340:510 nm, 380:510 nm and the ratio of 340/380:510 nm (background corrected images) as a function of the agent added.
Agents were always added 6 min after starting the measurement by removing an appropriate volume of Na^+ HBS buffer and pipetting the agent directly into the sample vessel for a further 30 to 50 min. The total volume in the sample vessel was constant at 1.5 ml throughout the experiment. […] Addition of CdCl2 and nifedipine took place immediately at the start of the experiment and before addition of α-LTX, and EGTA was added both at the start of the experiment and 4 min after the addition of α-LTX. […]
The data were analyzed using the Excel 98 table calculation programme. […]

HC110-R = type: cell-based, Haemonchus contortus
Procedure: as §1, §2
Agents were always added 6 min after starting the measurement by removing an appropriate volume of Na^+ HBS buffer and pipetting the agent directly into the sample vessel for a further 30 to 50 min. The total volume in the sample vessel was constant at 1.5 ml throughout the experiment. […] Addition of CdCl2 and nifedipine took place immediately at the start of the experiment and before addition of α-LTX, and EGTA was added both at the start of the experiment and 4 min after the addition of α-LTX. Dissolved α-LTX was present in a concentration of 300 nM in 50 mM tris-HCl, pH 8.0; BAY 44-4400 was initially dissolved in pure DMSO (stock solutions between 0.004 and 10 μg/ml). The stock solutions were adjusted to the required concentration in the Na^+ HBS buffer. The maximum amount of the active substance BAY 44-4400 which could be dissolved at a final concentration of 0.1% DMSO was found by setting up serial dilutions in Na^+ HBS.
The data were analyzed using the Excel 98 table calculation programme. The results are derived from at least 2-4 reproduced experiments on in each case 4-8 transfected and un-transfected cells.

SMILES: C[N+](C)(C)CCOC(N)=O.[Cl-] [carbachol, carbamylcholine chloride]
- carbachol-induced increase in [Ca2+]i [1]: 53+6.8 nM

SMILES: CC(C)NCC(O)c1ccc(O)c(O)c1 (centres unmarked) [isoproterenol]
- Ca2+ response to isoproterenol [2]: significant Ca^2+ response

SMILES: COC(=O)C1=C(C)NC(C)=C(C(=O)OC)C1c1ccccc1[N+](=O)[O-] [nifedipine]
- second α-LTX-induced increase in [Ca2+]i (HC110-R; 15 μM nifedipine): 30 ± 5.4 nM

SMILES: C1CNCCN1 [piperazine]
- effect of piperazine on activity of PF1022A/BAY44-4400 (Heterakis spumosa): synergistically enhances the effect of PF1022A/BAY44-4400
- change in Ca2+ balance, piperazine alone (HC110-R; 10 μM piperazine, untransfected and HC110-R-GFP-transfected cells): no change in the Ca^2+ balance

Reference: patent publication US20050037436A1, “Test systems and the use thereof for identifying and characterizing compounds” (priority 2000, published 2005)
